Experimental data published in patent US11352341B2, “2H-indazole derivatives as CDK4 and CDK6 inhibitors and therapeutic uses thereof” (Beta Pharma, Inc., priority 2018, dated 2022).
Structures can show the parent of a compound that is named as a salt.

How the values were obtained:
Assay type in all cases: biochemical
Conditions in all cases: RB Protein 3 μM substrate, 33P-ATP 1 μM, 10-dose IC50 mode, 3-fold dilution starting at 0.1 μM
CDK4/cyclin D1 = CDK4/cyclin D1 (Homo sapiens, UniProt P11802); assay: Radiometric 33P-ATP filter-binding kinase assay, CDK4/cyclin D1
Sequence of CDK4/cyclin D1 (P11802 whole entry, species assumed): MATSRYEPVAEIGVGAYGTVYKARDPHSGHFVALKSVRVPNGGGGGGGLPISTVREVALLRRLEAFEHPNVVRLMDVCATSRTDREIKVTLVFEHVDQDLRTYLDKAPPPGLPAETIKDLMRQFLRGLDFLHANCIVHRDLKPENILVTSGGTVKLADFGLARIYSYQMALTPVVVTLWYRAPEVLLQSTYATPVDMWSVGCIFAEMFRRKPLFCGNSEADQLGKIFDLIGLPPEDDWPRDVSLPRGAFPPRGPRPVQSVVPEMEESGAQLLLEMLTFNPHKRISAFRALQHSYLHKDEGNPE
Sequence of CDK4/cyclin D1 (P24385 whole entry partner, species assumed): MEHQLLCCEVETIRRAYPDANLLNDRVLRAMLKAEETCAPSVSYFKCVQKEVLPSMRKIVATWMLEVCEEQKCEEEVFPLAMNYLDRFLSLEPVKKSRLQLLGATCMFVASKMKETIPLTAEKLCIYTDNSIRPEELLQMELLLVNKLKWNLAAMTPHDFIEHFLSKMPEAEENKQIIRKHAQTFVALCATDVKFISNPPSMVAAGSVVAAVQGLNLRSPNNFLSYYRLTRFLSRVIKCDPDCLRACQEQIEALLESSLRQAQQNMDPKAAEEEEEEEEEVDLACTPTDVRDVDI
Protocol: (§1) CDK4/cyclin D1, CDK4/cyclin D3, CDK6/cyclin D1, and CDK6/cyclin D3 were added to freshly prepared substrate solution (RB Protein, 3 μM) which was in freshly made reaction buffer (20 mM Hepes (pH 7.5), 10 mM MgCl2, 1 mM EGTA, 0.02% Brij35, 0.02 mg/mL BSA, 0.1 mM Na3VO4, 2 mM DTT, 1% DMSO) and gently mixed, respectively. Compound 1.HCl was tested in a 10-dose IC50 mode with 3-fold dilution starting at 0.1 μM. Compound 1.HCl was prepared and diluted in DMSO and was delivered into the kinases/substrate reaction mixture by Acoustic technology (Echo550; nanoliter range), then incubated for 20 min at room temperature. Then 33P-ATP (1 μM) was added into the reaction mixture to initiate the reaction. The kinase reaction was incubated at room temperature for 2 hours. The reactions were spotted onto P81 ion-exchange paper and radioactivity was detected by filter-binding method. The kinase activity data were expressed as the percent remaining kinase activity in test samples compared to vehicle (Dimethyl Sulfoxide) reactions. […] HCl were determined for all 4 kinases: CDK4/cyclin D1, CDK4/cyclin D3, CDK6/cyclin D1, and CDK6/cyclin D3 and are shown in Table 2, as compared with those of ethylated counterpart, namely N-(5-((4-ethylpiperazin-1-yl)methyl)pyridin-2-yl)-5-fluoro-4-(3-isopropyl-2-methyl-2H-indazol-5-yl)pyrimidin-2-amine, or compound 37. […]

CDK4/cyclin D3 = CDK4/cyclin D3 (Homo sapiens, UniProt P11802); assay: Radiometric 33P-ATP filter-binding kinase assay, CDK4/cyclin D3
Sequence of CDK4/cyclin D3 (P11802 whole entry, species assumed): as the sequence (P11802 whole entry, species assumed) above
Sequence of CDK4/cyclin D3 (P30281 whole entry partner, species assumed): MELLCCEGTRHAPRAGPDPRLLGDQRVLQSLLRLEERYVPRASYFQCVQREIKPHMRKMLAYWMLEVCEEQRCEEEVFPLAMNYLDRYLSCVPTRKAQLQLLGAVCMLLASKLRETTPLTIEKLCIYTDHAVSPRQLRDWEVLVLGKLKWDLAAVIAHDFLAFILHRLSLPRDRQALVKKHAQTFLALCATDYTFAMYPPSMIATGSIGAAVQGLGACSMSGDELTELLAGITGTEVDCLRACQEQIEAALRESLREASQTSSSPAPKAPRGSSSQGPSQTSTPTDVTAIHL
Protocol: as §1

CDK6/cyclin D1 = CDK6/cyclin D1 (Homo sapiens, UniProt Q00534); assay: Radiometric 33P-ATP filter-binding kinase assay, CDK6/cyclin D1
Sequence of CDK6/cyclin D1 (Q00534 whole entry, species assumed): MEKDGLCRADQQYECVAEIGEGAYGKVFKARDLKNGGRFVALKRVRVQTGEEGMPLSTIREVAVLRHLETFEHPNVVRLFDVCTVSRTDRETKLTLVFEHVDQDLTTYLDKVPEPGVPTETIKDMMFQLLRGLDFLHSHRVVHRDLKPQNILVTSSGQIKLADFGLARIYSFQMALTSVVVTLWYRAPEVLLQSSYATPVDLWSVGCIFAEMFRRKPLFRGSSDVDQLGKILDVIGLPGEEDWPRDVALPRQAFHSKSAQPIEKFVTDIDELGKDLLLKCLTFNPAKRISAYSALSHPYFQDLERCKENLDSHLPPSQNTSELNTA
Sequence of CDK6/cyclin D1 (P24385 whole entry partner, species assumed): as the sequence (P24385 whole entry partner, species assumed) above
Protocol: as §1

CDK6/cyclin D3 = CDK6/cyclin D3 (Homo sapiens, UniProt Q00534); assay: Radiometric 33P-ATP filter-binding kinase assay, CDK6/cyclin D3
Sequence of CDK6/cyclin D3 (Q00534 whole entry, species assumed): as the sequence (Q00534 whole entry, species assumed) above
Sequence of CDK6/cyclin D3 (P30281 whole entry partner, species assumed): as the sequence (P30281 whole entry partner, species assumed) above
Protocol: as §1

Compound | IC50 (CDK4/cyclin D1) [nM] | IC50 (CDK4/cyclin D3) [nM] | IC50 (CDK6/cyclin D1) [nM] | IC50 (CDK6/cyclin D3) [nM]
CC(C)c1c2cc(-c3nc(Nc4ccc(CN5CCNCC5)cn4)ncc3F)ccc2nn1C [1•HCl, 5-Fluoro-4-(3-isopropyl-2-methyl-2H-indazol-5-yl)-N-(5-(piperazin-1-ylmethyl)pyridin-2-yl)pyrimidin-2-amine hydrochloride] | 0.705 | 3.99 | 1.11 | 25.6
CCN1CCN(Cc2ccc(Nc3ncc(F)c(-c4ccc5nn(C)c(C(C)C)c5c4)n3)nc2)CC1 [Compound 37, N-(5-((4-ethylpiperazin-1-yl)methyl)pyridin-2-yl)-5-fluoro-4-(3-isopropyl-2-methyl-2H-indazol-5-yl)pyrimidin-2-amine] | 1.47 | 1.98 | 23.8 | 5.66
